Measured values published in the supplement of paper PMC10307832.

Assays:
Test in all cases: relative viability (nuclei count vs DMSO), 5 days (fraction); higher = more cells survive
[1] = compound: C1CNCCC1C2=CC(=NN2)C3=CC=NC=C3 + CC1(C)CCC(c2ccc(Cl)cc2)=C(CN2CCN(c3ccc(C(=O)NS(=O)(=O)c4ccc(N[C@H](CCN5CCOCC5)CSc5ccccc5)c(S(=O)(=O)C(F)(F)F)c4)cc3)CC2)C1 [Navitoclax] (partner 0.5 µM)
In short: (§1)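 Lung cancer cell lines were pin-tool dosed in 1536-well plates on the day after seeding, with either a lone drug or a fixed anchor-drug dose plus five library-drug doses (not always all listed) in √10 steps. Nuclei were counted on 4× images after 5 days. Relative viability is the ratio of treated-well to vehicle-well nuclei counts, with each value a median of duplicate plates.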

[2] = compound: C1CNCCC1C2=CC(=NN2)C3=CC=NC=C3 + CS(=O)(=O)CCNCc1ccc(-c2ccc3ncnc(Nc4ccc(OCc5cccc(F)c5)c(Cl)c4)c3c2)o1 [Lapatinib] (partner 2 µM)
In short: as §1

[3] = compound: C[C@@H](N)c1ccc(C(=O)Nc2ccnc3[nH]ccc23)cc1 + CC(C)C[C@H](NC(=O)[C@H](Cc1ccccc1)NC(=O)c1cnccn1)B(O)O [Bortezomib] (partner 0.002 µM)
In short: as §1

[4] = compound: C[C@@H](N)c1ccc(C(=O)Nc2ccnc3[nH]ccc23)cc1 + C[C@]1(O)C[C@@H](c2nc(-c3ccc4ccc(-c5ccccc5)nc4c3)c3c(N)nccn32)C1 [Linsitinib] (partner 1 µM)
In short: as §1

Cell Line | relative viability ([1]; first compound 0.08 µM) | relative viability ([1]; first compound 0.8 µM) | relative viability ([1]; first compound 2.53 µM) | relative viability ([1]; first compound 8 µM) | relative viability ([2]; first compound 0.08 µM) | relative viability ([2]; first compound 0.8 µM) | relative viability ([2]; first compound 2.53 µM) | relative viability ([2]; first compound 8 µM) | relative viability ([3]; first compound 0.04 µM) | relative viability ([3]; first compound 0.1265 µM) | relative viability ([3]; first compound 0.4 µM) | relative viability ([3]; first compound 4 µM) | relative viability ([4]; first compound 0.04 µM) | relative viability ([4]; first compound 0.1265 µM) | relative viability ([4]; first compound 0.4 µM) | relative viability ([4]; first compound 4 µM) | relative viability ([3]; first compound 1.265 µM) | relative viability ([4]; first compound 1.265 µM)
NCI-H1355 | 0.919 | 0.813 | 1.09 | 0.871 | 0.971 | 0.948 | 1 | 0.935 | 1.04 | 1.22 | 1.35 | 1.26 | 0.853 | 0.723 | 0.833 | 0.771 |  | 
EKVX | 1.03 | 0.713 | 1.07 | 0.96 | 0.211 | 0.184 | 0.208 | 0.208 | 1.08 | 1 | 1.39 | 0.971 | 1.12 | 1.13 | 1.2 | 1.01 | 0.992 | 1.19
NCI-H441 |  | 0.915 | 0.836 | 0.704 |  |  |  |  | 0.599 | 0.472 | 0.693 | 0.449 | 0.626 | 0.571 | 0.64 | 0.45 | 0.57 | 0.483
NCI-H1975 | 1.18 | 1.2 | 1.19 | 1.09 | 0.905 | 1.08 | 1.05 | 0.83 | 0.314 | 0.365 | 0.37 | 0.244 | 1.01 | 0.915 | 0.964 | 0.619 | 0.308 | 0.778
HCC-78 | 0.729 |  | 0.836 | 0.884 | 0.723 |  | 0.871 | 0.86 | 0.504 | 0.42 | 0.661 | 0.313 | 0.776 | 0.518 | 0.804 | 0.424 | 0.69 | 0.735
NCI-H2085 | 1.21 | 0.869 | 1.18 | 1.24 | 0.877 | 0.51 | 0.819 | 0.772 | 0.882 | 1 | 0.979 | 0.842 | 1.02 | 0.907 | 0.905 | 0.777 | 0.996 | 0.868
H3255 | 0.52 | 0.444 | 0.738 | 0.537 | 0.265 | 0.255 | 0.262 | 0.261 | 0.827 | 0.86 | 0.895 | 0.657 | 0.997 | 1.04 | 1.26 | 0.947 | 0.955 | 0.957
NCI-H2087 | 1.04 | 0.973 | 0.969 | 0.903 | 1.25 | 1.26 | 0.944 | 0.948 | 0.49 | 0.783 | 0.719 | 0.686 | 1 | 0.823 | 0.916 | 0.478 | 0.499 | 0.824
LC-2-ad | 0.721 | 0.5 | 0.503 | 0.35 | 1.04 | 1.05 | 1 | 0.914 | 1.06 | 1.05 | 1.01 | 0.817 | 0.849 | 0.922 | 0.877 | 0.615 | 1.03 | 0.83
PC-3 [JPC-3] | 0.835 | 0.905 | 0.818 | 0.786 | 0.426 | 0.446 | 0.499 | 0.471 | 0.838 | 0.892 | 0.856 | 0.729 | 0.963 | 1.05 | 0.978 | 0.879 | 0.921 | 1
EBC-1 | 0.463 | 0.517 | 0.5 | 0.392 | 0.202 | 0.219 | 0.209 | 0.239 | 0.573 | 0.662 | 0.558 | 0.487 | 1.07 | 0.873 | 0.961 | 0.86 | 0.444 | 1.05
HCC-15 | 0.756 | 0.785 | 0.706 | 0.662 | 0.849 | 0.953 | 0.871 | 0.823 | 1.11 | 1.02 | 1.05 | 0.93 | 0.951 | 0.888 | 0.845 | 0.797 |  | 
NCI-H1563 |  |  |  |  | 0.747 | 0.885 | 0.896 | 1.03 | 0.776 | 0.798 | 0.777 | 0.897 | 1.25 | 1.16 | 1.14 | 1.27 | 0.699 | 1.13
COR-L 105 | 0.751 | 0.706 | 0.774 | 0.788 | 0.32 | 0.34 | 0.389 | 0.363 | 0.826 | 0.732 | 0.791 | 0.649 | 0.917 | 1.02 | 0.857 | 0.436 | 0.469 | 0.845
NCI-H520 | 1.06 | 1.01 | 1.06 | 1.28 | 0.763 | 0.897 | 0.92 | 0.835 | 0.756 | 0.716 | 0.628 | 0.54 | 0.97 | 1.07 | 1.05 | 1.02 | 0.638 | 1.26
LU99A | 0.662 | 0.872 | 0.776 | 0.732 | 0.974 | 1.18 | 1.28 | 1.1 | 0.947 | 1.23 | 1.23 | 0.78 | 0.607 | 0.569 | 0.586 | 0.509 | 0.88 | 0.617
NCI-H1666 | 0.807 | 0.877 | 1.06 | 1.02 | 0.522 | 0.739 | 0.845 | 0.625 | 0.991 | 1.12 | 1.04 | 0.932 | 0.849 | 1.04 | 1.01 | 0.966 | 0.984 | 1.12
NCI-H2170 | 0.472 | 0.697 | 0.72 | 0.698 | 0.247 | 0.28 | 0.269 | 0.291 |  |  |  |  |  |  |  |  |  | 
LCLC-97TM1 | 0.432 | 0.385 | 0.396 | 0.68 | 1.05 | 1.39 | 1.59 | 1.04 | 0.827 | 0.619 | 0.764 | 0.375 | 0.192 | 0.2 | 0.202 | 0.349 | 0.603 | 0.29
